{"source": "patent US20240245786A1", "about": "“SMALL MOLECULE DEGRADERS OF PHOSPHATIDYLINOSITOL-5-PHOSPHATE 4-KINASE TYPE 2 AND USES THEREOF” (DANA-FARBER CANCER INSTITUTE, INC., priority 2020, published 2024)", "key": {"[1]": {"target": "T1, ETS2 Repressor Factor (ERF) (Homo sapiens, UniProt P50548)", "T1 sequence (P50548 1-548)": "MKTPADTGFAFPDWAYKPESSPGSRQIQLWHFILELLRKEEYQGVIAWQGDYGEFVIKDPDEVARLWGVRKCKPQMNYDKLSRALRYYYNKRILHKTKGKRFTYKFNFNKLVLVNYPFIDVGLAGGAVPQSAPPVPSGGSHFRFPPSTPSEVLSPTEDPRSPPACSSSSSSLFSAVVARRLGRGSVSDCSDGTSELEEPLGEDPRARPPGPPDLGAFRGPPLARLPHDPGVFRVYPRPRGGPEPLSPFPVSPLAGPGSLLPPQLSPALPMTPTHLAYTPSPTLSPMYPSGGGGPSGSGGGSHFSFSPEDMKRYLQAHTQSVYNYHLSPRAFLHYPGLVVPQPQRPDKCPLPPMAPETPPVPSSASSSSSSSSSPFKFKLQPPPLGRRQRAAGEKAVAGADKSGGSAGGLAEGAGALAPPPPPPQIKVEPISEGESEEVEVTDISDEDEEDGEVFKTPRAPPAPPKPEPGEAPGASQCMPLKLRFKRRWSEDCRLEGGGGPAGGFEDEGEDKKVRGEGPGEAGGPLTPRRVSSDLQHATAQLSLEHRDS", "assay": "Proteomics analysis (TMT LC-MS3) of Molt4 cells, ERF", "details": "1 μM, 5 h", "procedure": "(§1) Molt4 cells were treated with DMSO or the indicated compound for 5 h, and cells were harvested by centrifugation. […] The homogenized sample was clarified by centrifugation at 20,000×g for 10 min at 4° C. A micro-BCA assay (Pierce™) was used to determine the final protein concentration in the cell lysate. […] Proteins were precipitated using methanol/chloroform. In brief, four volumes of methanol were added to the cell lysate, followed by one volume of chloroform, and finally three volumes of water. The mixture was vortexed and centrifuged at 14,000×g for 5 min to separate the chloroform phase from the aqueous phase. […] The sample channels were combined in a 1:1:1:1:1:1:1:1:1:1 ratio, desalted using C18 solid phase extraction cartridges (Waters®) and analyzed by liquid chromatography-mass spectrometry (LC-MS) for channel ratio comparison. Samples were then combined using the adjusted volumes determined in the channel ratio analysis and dried down in a speed vacuum. […]\n(§2) Proteome Discoverer™ 2.2 (Thermo Fisher) was used for RAW file processing and controlling peptide and protein level false discovery rates, assembling proteins from peptides, and protein quantification from peptides. […] TMT reporter ion intensities were measured using a 0.003 Da window around the theoretical m z for each reporter ion in the MS3 scan. […]"}, "[2]": {"target": "T2, PIP4K2B (Homo sapiens, UniProt P78356)", "T2 sequence (P78356 1-416)": "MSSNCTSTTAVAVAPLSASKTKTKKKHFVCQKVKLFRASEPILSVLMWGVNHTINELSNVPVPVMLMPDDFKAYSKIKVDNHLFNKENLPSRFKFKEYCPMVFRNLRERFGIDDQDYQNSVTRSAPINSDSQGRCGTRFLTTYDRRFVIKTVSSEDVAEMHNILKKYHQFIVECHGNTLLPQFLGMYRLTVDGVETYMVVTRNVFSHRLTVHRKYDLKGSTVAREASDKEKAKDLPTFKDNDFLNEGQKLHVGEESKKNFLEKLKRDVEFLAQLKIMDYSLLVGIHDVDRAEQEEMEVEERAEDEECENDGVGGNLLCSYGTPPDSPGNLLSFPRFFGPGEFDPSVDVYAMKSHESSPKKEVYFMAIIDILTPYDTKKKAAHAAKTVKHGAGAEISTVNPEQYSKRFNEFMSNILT", "assay": "Proteomics analysis (TMT LC-MS3) of Molt4 cells, PIP4K2B abundance", "details": "1 μM, 5 h", "procedure": "as §1, §2"}, "[3]": {"target": "T1, ETS2 Repressor Factor (ERF)", "assay": "Immunoblot of ERF degradation in Molt4 cells (FIG. 1D)", "type": "cell-based", "design": "immunoblot of PIP4K2A, PIP4K2B, PIP4K2C, and ERF degradation in Molt4 cells; endogenous in cells; host or cells: Molt4", "details": "6 h or 8 h", "description": "Molt4 cells were treated with the indicated compounds for the indicated time in FIG. 1A-FIG. 1F and FIG. 3A-FIG. 3B. Cells were lysed in M-PER™ buffer (Thermo Scientific) containing protease/phosphatase inhibitor cocktail (Roche®). Protein concentration was measured using a bicinchoninic acid (BCA) assay (Pierce™). Equivalent amounts of each sample were loaded on 4-12% Bis-Tris gels (Invitrogen™), transferred to nitrocellulose membranes, and immunoblotted with antibodies against the indicated proteins. IRDye®800-labeled goat anti-rabbit IgG and IRDye®680-labeled goat anti-mouse IgG (LI-COR®) secondary antibodies were purchased for LI-COR®, and membranes were detected on an Odyssey® detection system (LI-COR® Biosciences)."}, "[4]": {"target": "T2, PIP4K2B", "assay": "IC50 for bifunctional compound 1, PIP4K2B (biochemical binding affinity)"}, "[5]": {"target": "T3, PIP4K2A (Homo sapiens, UniProt P48426)", "T3 sequence (P48426 1-406)": "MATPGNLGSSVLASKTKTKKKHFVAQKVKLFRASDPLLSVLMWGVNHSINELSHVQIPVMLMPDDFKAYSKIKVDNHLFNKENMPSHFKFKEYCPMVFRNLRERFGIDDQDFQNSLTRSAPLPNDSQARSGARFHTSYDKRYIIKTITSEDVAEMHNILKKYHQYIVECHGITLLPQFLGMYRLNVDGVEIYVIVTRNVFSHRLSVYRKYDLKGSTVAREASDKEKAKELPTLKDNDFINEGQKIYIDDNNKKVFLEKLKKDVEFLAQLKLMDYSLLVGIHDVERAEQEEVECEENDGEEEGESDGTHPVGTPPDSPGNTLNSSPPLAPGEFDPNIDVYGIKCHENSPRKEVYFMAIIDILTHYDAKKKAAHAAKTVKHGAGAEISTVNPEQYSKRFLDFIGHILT", "assay": "Proteomics analysis (TMT LC-MS3) of Molt4 cells, PIP4K2A abundance", "details": "1 μM, 5 h", "procedure": "as §1, §2"}, "[6]": {"target": "T3, PIP4K2A", "assay": "IC50 for bifunctional compound 1, PIP4K2A (biochemical binding affinity)"}}, "note": "pIC50: −log10 of the molar value."}
{"smiles": "Cc1ncsc1-c1ccc([C@H](C)NC(=O)C2C[C@@H](O)CN2C(=O)[C@@H](NC(=O)CCCCC(=O)Nc2ccc(C(=O)Nc3cccc(Nc4cc(-c5c[nH]c6ccccc56)ncn4)c3)cc2)C(C)(C)C)cc1", "note": "(stereo partly drawn) [Compound 1, N1-(4-((3-((6-(1H-indol-3-yl)pyrimidin-4-yl)amino)phenyl)carbamoyl)phenyl)-N6-((2S)-1-((4R)-4-hydroxy-2-(((S)-1-(4-(4-methylthiazol-5-yl)phenyl)ethyl)carbamoyl)pyrrolidin-1-yl)-3,3-dimethyl-1-oxobutan-2-yl)adipamide]", "values": [{"measurement": "ERF degradation, validation by proteomics analysis", "setting": "[1]", "result": "not validated as a confirmed degraded protein"}, {"measurement": "change in abundance of PIP4K2B (proteomics)", "setting": "[2]", "result": "no detectable change in abundance"}, {"measurement": "ERF degradation, as seen in FIG. 1D", "setting": "[3]", "result": "scored as a potential degraded protein"}, {"measurement": "pIC50", "setting": "[4]", "result": 4.85}, {"measurement": "change in abundance of PIP4K2A (proteomics)", "setting": "[5]", "result": "no detectable change in abundance"}, {"measurement": "pIC50", "setting": "[6]", "result": "< 5.00"}]}
